The assay deals with T1, KRAS-G12C (Homo sapiens, UniProt P01116, G12C).
T1 construct: full-length KRAS-G12C, Sm-BiT fused at the N-terminus; with p110α RBD (aa133-314), LgBiT fusion
In words: NanoBiT split-luciferase KRAS/RBDα interaction assay in HEK293 cell lysate. It is filed as biochemical.

Experimental findings from publication PMC7308888, “Development of a cell-free split-luciferase biochemical assay as a tool for screening for inhibitors of challenging protein-protein interaction targets” (Wellcome Open Research, 2020) are described below.

Regarding `Cn1cnc(Cn2ccc3ccc(CNCc4[nH]c5ccccc5c4[C@H]4NC(=O)c5ccc(O)cc54)cc32)c1` [BI-2852], the “NanoBiT split-luciferase KRAS/RBDα interaction assay in HEK293 cell lysate” value was ~ 1 µM.
